Source: patent US10077261B2, “Imidazolin-5-one derivative useful as FASN inhibitors for the treatment of cancer” (Janssen Pharmaceutica NV, priority 2012, dated 2018)

What was measured:
[1] = target: T1, hFASN enzyme (full length) (Homo sapiens, UniProt P49327); assay: Fatty Acid Synthase (FASN) inhibition scintillation proximity assay; assay type: biochemical; details: for inhibition at 10 µM: read-out: Human FASN % inhibition @ 10 μM, 10 μM test compound; for IC50: read-out: Human FASN pIC50 (converted)
T1 construct: 10 μL hFASN enzyme (full length, 300 ng, purified in house); made in house
Outline: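 Full-length in-house purified enzyme (300 ng) was tested in 100 mM KH2PO4 pH 7.5, 1 mM DTT with ³H-acetyl-CoA and malonyl-CoA as substrates; compounds ranged 0.01–30 μM. Reactions were stopped with streptavidin imaging beads, read by LEADseeker at 610 nm, and fitted to a 4-parameter logistic curve.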

[2] = target: Fatty Acid Synthase Keto-reductase Domain (FASN KR) (Homo sapiens, UniProt P49327); assay: Fatty Acid Synthase keto-reductase domain (FASN KR) inhibition, NADPH oxidation at 340 nm
Experimental: After 20 minutes incubation at room temperature the plate was measured again (T2).
The decrease in absorbance was calculated as (Absorbance before incubation T1)−(Absorbance following incubation T2).
A plot of Controlmin versus test compound concentration was fitted to a 4-parameter logistic curve using a non-linear least squares regression method.

[3] = system: A2780 ovarian cells; assay: A2780 ovarian cell proliferation assay in lipid reduced medium, with palmitate (MTT); assay type: cell-based; details: Homo sapiens, A2780, 96 h; read-out: pIC50 A2780 Ovarian Cell, With Palmitate (converted)
Outline: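 Seeded cells were switched next day to lipid-reduced serum, exposed to compound and 25 μM palmitate complexed with fatty-acid-free BSA, and incubated 96 h. Proliferation was then determined by MTT absorbance at 544 nm, with a best-fit curve of signal against concentration.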

[4] = system: PC-3M-Luc-C6 prostate cells; assay: In vitro PC-3M-Luc-C6 prostate cell proliferation assay in lipid reduced medium; assay type: cell-based; details: 96 h, read-out: pIC50 PC-3M-Luc-C6 prostate cell (converted)
[5] = system: A2780 ovarian cells; assay: A2780 ovarian cell proliferation assay in lipid reduced medium, without palmitate (MTT); assay type: cell-based; details: Homo sapiens, A2780, 96 h; read-out: pIC50 A2780 Ovarian Cell, Without Palmitate (converted)
[6] = system: LNCaP-Vancouver prostate cells; assay: In vitro LNCaP Vancouver prostate cell proliferation assay in lipid reduced medium; assay type: cell-based; details: read-out: pIC50 LNCaP_Vancouver prostate cell (converted)

Sequence of Fatty Acid Synthase Keto-reductase Domain (FASN KR) (P49327 whole entry, the tested form may be a part): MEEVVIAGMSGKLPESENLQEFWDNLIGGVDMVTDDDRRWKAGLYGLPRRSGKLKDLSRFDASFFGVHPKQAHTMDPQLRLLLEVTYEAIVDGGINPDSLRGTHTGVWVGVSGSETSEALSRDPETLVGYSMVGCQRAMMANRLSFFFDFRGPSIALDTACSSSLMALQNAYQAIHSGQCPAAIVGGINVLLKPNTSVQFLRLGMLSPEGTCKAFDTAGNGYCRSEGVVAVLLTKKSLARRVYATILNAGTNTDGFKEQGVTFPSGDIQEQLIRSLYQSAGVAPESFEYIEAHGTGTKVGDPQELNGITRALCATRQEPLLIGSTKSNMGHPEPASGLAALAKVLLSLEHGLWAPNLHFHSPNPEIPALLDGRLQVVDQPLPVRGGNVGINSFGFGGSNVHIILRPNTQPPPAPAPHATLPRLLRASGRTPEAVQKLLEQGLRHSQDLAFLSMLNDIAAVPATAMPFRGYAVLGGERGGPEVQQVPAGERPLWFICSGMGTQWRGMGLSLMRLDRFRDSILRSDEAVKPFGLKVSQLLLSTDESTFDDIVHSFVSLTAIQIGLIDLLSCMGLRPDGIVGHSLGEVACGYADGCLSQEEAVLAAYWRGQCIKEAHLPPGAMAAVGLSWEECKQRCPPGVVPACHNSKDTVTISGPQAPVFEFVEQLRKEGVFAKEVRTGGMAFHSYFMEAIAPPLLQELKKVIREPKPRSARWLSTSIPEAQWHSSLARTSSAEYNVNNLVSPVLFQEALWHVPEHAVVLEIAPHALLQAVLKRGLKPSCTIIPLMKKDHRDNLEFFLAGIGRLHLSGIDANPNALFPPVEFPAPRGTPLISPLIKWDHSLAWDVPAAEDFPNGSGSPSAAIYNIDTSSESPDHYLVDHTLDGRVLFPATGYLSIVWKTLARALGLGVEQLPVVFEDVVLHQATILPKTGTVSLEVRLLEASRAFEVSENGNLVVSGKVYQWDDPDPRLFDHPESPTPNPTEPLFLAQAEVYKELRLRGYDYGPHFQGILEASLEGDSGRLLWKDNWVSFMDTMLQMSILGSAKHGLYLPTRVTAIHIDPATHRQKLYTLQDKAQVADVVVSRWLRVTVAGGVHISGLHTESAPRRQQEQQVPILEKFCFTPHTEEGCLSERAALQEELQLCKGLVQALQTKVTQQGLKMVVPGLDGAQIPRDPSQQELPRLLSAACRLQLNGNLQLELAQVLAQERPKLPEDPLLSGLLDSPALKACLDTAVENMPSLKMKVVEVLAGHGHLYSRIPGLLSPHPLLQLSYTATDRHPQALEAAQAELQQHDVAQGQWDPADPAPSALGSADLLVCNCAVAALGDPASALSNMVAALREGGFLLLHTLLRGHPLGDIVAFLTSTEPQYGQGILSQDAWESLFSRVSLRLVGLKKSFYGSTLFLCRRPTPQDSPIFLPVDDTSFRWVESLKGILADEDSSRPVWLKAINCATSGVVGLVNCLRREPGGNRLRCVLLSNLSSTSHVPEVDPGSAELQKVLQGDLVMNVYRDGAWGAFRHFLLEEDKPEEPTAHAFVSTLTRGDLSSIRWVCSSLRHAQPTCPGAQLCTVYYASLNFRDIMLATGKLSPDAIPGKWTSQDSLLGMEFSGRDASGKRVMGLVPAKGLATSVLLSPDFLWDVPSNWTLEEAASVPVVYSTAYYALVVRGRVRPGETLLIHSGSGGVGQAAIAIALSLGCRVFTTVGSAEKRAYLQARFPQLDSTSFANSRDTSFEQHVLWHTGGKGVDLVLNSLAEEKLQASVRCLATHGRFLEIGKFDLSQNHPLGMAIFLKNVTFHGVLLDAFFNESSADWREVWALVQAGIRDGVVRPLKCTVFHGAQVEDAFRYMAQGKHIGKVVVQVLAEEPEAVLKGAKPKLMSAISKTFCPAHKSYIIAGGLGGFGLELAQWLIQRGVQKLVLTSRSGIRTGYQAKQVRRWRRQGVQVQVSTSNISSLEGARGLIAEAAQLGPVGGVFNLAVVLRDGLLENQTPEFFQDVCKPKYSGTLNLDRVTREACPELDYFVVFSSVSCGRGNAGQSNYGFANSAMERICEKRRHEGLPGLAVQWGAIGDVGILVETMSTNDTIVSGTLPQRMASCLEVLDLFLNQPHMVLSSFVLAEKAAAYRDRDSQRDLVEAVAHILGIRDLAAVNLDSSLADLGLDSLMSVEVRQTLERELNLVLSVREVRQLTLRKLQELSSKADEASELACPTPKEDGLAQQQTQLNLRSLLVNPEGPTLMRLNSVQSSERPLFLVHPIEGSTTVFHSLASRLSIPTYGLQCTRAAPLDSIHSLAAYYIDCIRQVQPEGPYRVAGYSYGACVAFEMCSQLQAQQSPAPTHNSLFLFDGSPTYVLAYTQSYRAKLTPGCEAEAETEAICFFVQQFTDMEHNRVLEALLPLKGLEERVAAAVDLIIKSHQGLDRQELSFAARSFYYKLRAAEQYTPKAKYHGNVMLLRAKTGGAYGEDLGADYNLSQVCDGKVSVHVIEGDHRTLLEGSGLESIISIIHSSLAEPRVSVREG
T1 sequence (P49327 whole entry): as the sequence (P49327 whole entry, the tested form may be a part) above

SMILES | inhibition at 10 µM [1] [%] | IC50 [1] [nM] | IC50 [2] [nM] | IC50 [3] [nM] | IC50 [4] [nM] | IC50 [5] [nM] | IC50 [6] [nM]
Cn1nc(C#N)c2ccc(-c3ccc(C4=NC5(CC5)C(=O)N4C[C@@H]4CCN(C(=O)C5CC5)C4)cc3)cc21 [compound 493, 6-[4-(6-{[(3R)-1-(Cyclopropylcarbonyl)pyrrolidin-3-yl]methyl}-7-oxo-4,6-diazaspiro[2.4]hept-4-en-5-yl)phenyl]-1-methyl-1H-indazole-3-carbonitrile] | 98 | 166 | 427 | > 10000 | 158 | ~209 | 1260
Cc1cc(-c2ccc3cc(C#N)ccc3c2)ccc1C1=NC2(CC2)C(=O)N1CC1CN(C(=O)C2(C)CC2)C1 [compound 269, 6-(3-methyl-4-(6-((1-(1-methylcyclopropanecarbbonyl)azetidin-3-yl)methyl)-7-oxo-4,6-diazaspiro[2.4]hept-4-en-5-yl)phenyl)-2-naphthonitrile] | 102 | 22.4 | 66.1 | 4270 | ~8.32 | ~3.72 | 28.2
Cc1cc2cc(-c3ccc(C4=NC5(CC5)C(=O)N4C[C@@H]4CCN(C(=O)C5CC5)C4)c(F)c3)ccc2s1 [compound 243, (R)-6-((1-(cyclopropanecarbonyl)pyrrolidin-3-yl)methyl)-5-(2-fluoro-4-(2-methylbenzo[b]thiophen-5-yl)phenyl)-4,6-diazaspiro[2.4]hept-4-en-7-one] | 104 | 22.4 | 41.7 | > 6170 | ~240 | 646 | 832
Cn1ncc2cc(-c3ccc(C4=NC5(CC5)C(=O)N4CC4CN(C(=O)C5(O)CC5)C4)c(Cl)c3)ccc21 [compound 264, 5-(2-chloro-4-(1-methyl-1H-indazol-5-yl)phenyl)-6-((1-(1-hydroxycyclopropanecarbonyl)azetidin-3-yl)methyl)-4,6-diazaspiro[2.4]hept-4-en-7-one] | 108 | 37.2 | 158 | > 10000 | 44.7 | 74.1 | 501
Cn1ncc2cc(-c3ccc(C4=NC5(CC5)C(=O)N4C[C@@H]4CCN(C(=O)C5(O)CC5)C4)cc3)ccc21 [compound 200] | 102 | 34.7 | 34.7 | > 10000 | 6.46 | ~3.89 | ~33.9
Cc1cc(-c2ccc(-c3ccn(CC(C)C)n3)cc2)ccc1C1=NC2(CC2)C(=O)N1CC1CN(C(=O)C2(C)CC2)C1 [compound 602, 6-({1-[(1-Methylcyclopropyl)carbonyl]azetidin-3-yl}methyl)-5-{3-methyl-4′-[1-(2-methylpropyl)-1H-pyrazol-3-yl]biphenyl-4-yl}-4,6-diazaspiro[2.4]hept-4-en-7-one] | 94 | 324 | 1550 | 6170 | 692 | 380 | 1480
COc1ccc2ccc(-c3ccc(C4=NC5(CC5)C(=O)N4CC4CN(C(=O)C5(O)CC5)C4)c(F)c3)cc2c1 [compound 617, 5-[2-Fluoro-4-(7-methoxynaphthalen-2-yl)phenyl]-6-({1-[(1-hydroxycyclopropyl)carbonyl]azetidin-3-yl}methyl)-4,6-diazaspiro[2.4]hept-4-en-7-one] | 100 | 166 | 631 | > 10000 | 646 | 245 | 2570
Cc1cc(-c2ccc3cc(Cl)cnc3c2)ccc1C1=NC2(CC2)C(=O)N1CC1CN(C(=O)C2(C)CC2)C1 [compound 340, 5-(4-(3-chloroquinolin-7-yl)-2-methylphenyl)-6-((1-(1-methylcyclopropanecarbonyl)azetidin-3-yl)methyl)-4,6-diazaspiro[2.4]hept-4-en-7-one] | 101 | 28.8 | 38 | 6030 | 18.2 | 15.5 | 93.3
O=C(C1CC1)N1CC(CN2C(=O)C3(CC3)N=C2c2ccc(-c3ccc(Cl)cc3F)cc2F)C1 [compound 537, 5-(4′-Chloro-2′,3-difluorobiphenyl-4-yl)-6-{[1-(cyclopropylcarbonyl)azetidin-3-yl]methyl}-4,6-diazaspiro[2.4]hept-4-en-7-one] | 99 | 174 | 427 | > 10000 | 617 | 263 | 1320
Cc1cc(-c2ccc3ccc(Cl)nc3c2)ccc1C1=NC2(CC2)C(=O)N1CC1CN(C(=O)C2(C)CC2)C1 [compound 594, 5-[4-(2-Chloroquinolin-7-yl)-2-methylphenyl]-6-({1-[(1-methylcyclopropyl)carbonyl]azetidin-3-yl}methyl)-4,6-diazaspiro[2.4]hept-4-en-7-one] | 102 | 245 | 1070 | > 10000 | ~589 | 617 | 1910
Cc1nc2ccc(-c3ccc(C4=NC5(CC5)C(=O)N4CC4CN(C(=O)C5CC5)C4)c(F)c3)cc2s1 [compound 558, 6-{[1-(Cyclopropylcarbonyl)azetidin-3-yl]methyl}-5-[2-fluoro-4-(2-methyl-1,3-benzothiazol-6-yl)phenyl]-4,6-diazaspiro[2.4]hept-4-en-7-one] | 96 | 186 | 708 | 6310 | 724 | ~562 | 2510
Cc1cc(-c2cccc(NS(=O)(=O)C3CC3)c2)ccc1C1=NC2(CC2)C(=O)N1C[C@@H]1CCN(C(=O)C2CC2)C1 [compound 613, N-[4′-(6-{[(3R)-1-(Cyclopropylcarbonyl)pyrrolidin-3-yl]methyl}-7-oxo-4,6-diazaspiro[2.4]hept-4-en-5-yl)-3′-methylbiphenyl-3-yl]cyclopropanesulfonamide] | 102 | 115 | 229 | > 10000 | 97.7 | 107 | 851
Cn1ncc2cc(-c3ccc(C4=NC5(CC5)C(=O)N4C[C@@H]4CCN(C(=O)C5(O)CC5)C4)c(F)c3)ccc21 [compound 370, (R)-5-(2-fluoro-4-(1-methyl-1H-indazol-5-yl)phenyl)-6-((1-(1-hydroxycyclopropanecarbonyl)pyrrolidin-3-yl)methyl)-4,6-diazaspiro[2.4]hept-4-en-7-one] | 100 | 28.8 | 40.7 | > 10000 | ~3.89 | ~2.4 | 20.4
O=C(C1CC1)N1CC(CN2C(=O)C3(CCN(C(=O)C(F)(F)F)CC3)N=C2c2ccc(-c3ccc4[nH]ccc4c3)cc2)C1 [compound 765, 3-{[1-(Cyclopropylcarbonyl)azetidin-3-yl]methyl}-2-[4-(1H-indol-5-yl)phenyl]-8-(trifluoroacetyl)-1,3,8-triazaspiro[4.5]dec-1-en-4-one] | 96 | 363 | 832 | > 10000 | 2090 | 2190 | 8910
Cc1cc(-c2ccc3[nH]ccc3c2)ccc1C1=NC2(CC2)C(=O)N1CC1CN(C(=O)C2CC2)C1 [compound 291, 5-(4-(1H-indol-5-yl)-2-methylphenyl)-6-((1-(cyclopropanecarbonyl)azetidin-3-yl)methyl)-4,6-diazaspiro[2.4]hept-4-en-7-one] | 108 | 27.5 | 38 | > 10000 | ~42.7 | 45.7 | 295
CCn1ncc2cc(-c3ccc(C4=NC5(CC5)C(=O)N4CC4CN(C(=O)C5CC5)C4)c(F)c3)ccc21 [compound 521, 6-{[1-(Cyclopropylcarbonyl)azetidin-3-yl]methyl}-5-[4-(1-ethyl-1H-indazol-5-yl)-2-fluorophenyl]-4,6-diazaspiro[2.4]hept-4-en-7-one] | 94 | 513 | 676 | > 10000 | 603 | ~339 | 1910
O=C(C1CC1)N1CC[C@@H](CN2C(=O)C3(CC3)N=C2c2ccc(-c3nc4ccccc4s3)cc2)C1 [compound 308, (R)-5-(4-(benzo[d]thiazol-2-yl)phenyl)-6-((1-(cyclopropanecarbonyl)pyrrolidin-3-yl)methyl)-4,6-diazaspiro[2.4]hept-4-en-7-one] | 102 | 47.9 | 129 | > 10000 | 100 | 145 | 479
